Test results: patent US20170158702A1, “MULTIVALENT RAS BINDING COMPOUNDS” (KYRAS THERAPEUTICS, INC., priority 2015, published 2017)
Where a name gives a salt, the structure may show the parent alone.

Experiments:
Type in all cases: cell-based
[1] = system: NCI-H460; assay: Viability assay with NCI-H460 (CellTiter-Glo cytotoxicity assay, 72 h); conditions: NCI-H460 cell line, 72 h after compounds addition
Method: (§1) NCI-H460 (Epithelial lung tissue; carcinoma; large cell lung cancer) were cultured in RPMI Medium 1640 (Invitrogen-22400105) supplemented with 10% fetal bovine serum (FBS; Invitrogen-10099141). All the cell lines were maintained in a humidified incubator at 37° C. with 5% CO2. Cell culture media and supplements were purchased from Invitrogen, and tissue culture flasks were purchased from Corning, 96-well plates were purchased from Greiner. CellTiter-Glo Luminescent Cell Viability Assay kits were purchased from Promega (Promega-G7573), cells counter Vi-Cell was purchased from Beckman, D300e digital dispenser was purchased from Tecan, detection instrument Envision was purchased from PerkinElmer.
(§2) Paclitaxel was purchased from SELLECK, test compounds, such as any one of the compounds disclosed herein, attained solubility in DMSO and when diluted into culture media. DMSO, solutions containing the test compounds, and culture media were warmed to 37° C. or room temperature for the solution preparation and dilutions.
(§3) NCI-H460 Cell line were seeded in 96-well plates (1200/well) and allowed to adhere to overnight (100 uL/well), for drug treatments with 2 fold dilution, 9 dose points, triplicates or vehicle control, compound stock solutions were prepared in DMSO and use D300e digital dispenser to add compounds to the wells to give the indicated final drug concentrations. Final DMSO concentration was 0.5%. Cellular ATP concentrations were assessed by using the CellTiter-Glo Cell Viability Assay as per the manufacturer's instructions 72 h after compounds addition. Additional cells lines were assayed with any one of the compounds disclosed herein according to the procedures described for the viability assay with NCI-H460.

[2] = system: MIA PaCa-2; assay: Viability assay with MIA PaCa-2; conditions: MIA PaCa-2, viability assay per Example 57
Method: as §1, §2, §3
A viability assay with MIA PaCa-2 (Epithelial pancreas tissue; carcinoma) was performed with compounds listed in Table 15, according to the procedures described in Example 57.

[3] = system: HT-29; assay: Viability assay with HT-29; conditions: HT-29, viability assay per Example 57
Method: as §1, §2, §3
A viability assay with HT-29 (Colorectal adenocarcinoma) was performed with compounds listed in Table 18 according to the procedures described in Example 57.

Row | SMILES | EC50 [2] | EC50 [3] | EC50 [1]
1 | CC(C)(N)CCCn1cc(-c2ccc(OC(F)(F)F)cc2)c2cc(CN3CCN(Cc4ccccc4Cl)CC3)ccc21 [C132; Formic acid] | ≤ 5 µM | ≤ 5 µM | ≤ 5 µM
2 | NCCCn1cc(-c2ccc(OC(F)(F)F)cc2CN)c2cc(CN3CCNC(=O)C3)ccc21 [C258; Formic Acid] | 5 to 10 µM | 5 to 10 µM | 5 to 10 µM
3 | FC(F)(F)Oc1ccc(-c2cn(CCCNc3ccccn3)c3ccc(CN4CCN(Cc5ccccc5Cl)CC4)cc23)cc1 [C208; Formic Acid] | 5 to 10 µM | 5 to 10 µM | ≤ 5 µM
4 | NCCCn1cc(-c2ccc(OC(F)(F)F)cc2)c2cc(CN3CCN(Cc4ccc(Cl)cc4Cl)CC3)ccc21 [C135; HCl] | ≤ 5 µM | ≤ 5 µM | ≤ 5 µM
5 | NCc1ccc(Cn2cc(-c3ccc(OC(F)(F)F)cc3)c3cc(CN4CCN(Cc5ccccc5Cl)CC4)ccc32)cn1 [C224; Formic Acid] | ≤ 5 µM | ≤ 5 µM | ≤ 5 µM
6 | Cc1cc(Cl)ccc1CN1CCN(Cc2ccc3c(c2)c(-c2ccc(OC(F)(F)F)cc2)cn3CCCN)CC1 [C139; HCl] | ≤ 5 µM | ≤ 5 µM | ≤ 5 µM
7 | NCCCn1cc(-c2ccccc2CCN)c2cc(CN3CCN(Cc4ccccc4Cl)CC3)ccc21 [C131; HCl] | – | ≤ 5 µM | –
8 | O=C(NCCCn1cc(-c2ccc(OC(F)(F)F)cc2)c2cc(CN3CCN(Cc4c(Cl)cccc4Cl)CC3)ccc21)C1CNCCN1 (centres unmarked) [C90; HCl] | ≤ 5 µM | – | ≤ 5 µM
9 | NC1(C(=O)NCCCc2cn(-c3ccc(OC(F)(F)F)cc3)c3cc(C(=O)N4CCN(Cc5c(Cl)cccc5Cl)CC4)ccc23)CCNCC1 [C80; HCl] | ≤ 5 µM | – | ≤ 5 µM
10 | NC1(C(=O)NCCCn2cc(-c3ccc(OC(F)(F)F)cc3)c3cc(CN4CCN(Cc5ccccc5Cl)CC4)ccc32)CCNCC1 [C62; HCl] | ≤ 5 µM | – | ≤ 5 µM
11 | COc1ccc(CN2CCNC(C(=O)NCCCn3cc(-c4ccc(OC(F)(F)F)cc4)c4cc(CN5CCN(Cc6c(Cl)cccc6Cl)CC5)ccc43)C2)cc1OCc1ccc(Cl)c(Cl)c1 (centres unmarked) [C89; Formic acid] | 5 to 10 µM | – | 5 to 10 µM
12 | NC1(C(=O)NCCn2cc(-c3ccc(OC(F)(F)F)cc3)c3cc(CN4CCN(Cc5c(Cl)cccc5Cl)CC4)ccc32)CCNCC1 [C64; HCl] | ≤ 5 µM | – | ≤ 5 µM
13 | CC(C)(C)OC(=O)N1CCC(N)(C(=O)NCCCn2cc(-c3ccc(OC(F)(F)F)cc3)c3cc(CN4CCN(Cc5c(Cl)cccc5Cl)CC4)cnc32)CC1 [C175; Formic Acid] | 5 to 10 µM | – | ≤ 5 µM
14 | COc1ccccc1CN1CCN(Cc2ccc3c(c2)c(-c2ccc(OC(F)(F)F)cc2)cn3CCCNC(=O)C2(N)CCNCC2)CC1 [C59; Formic acid] | ≤ 5 µM | – | ≤ 5 µM

The next lines start with results.

Row | EC50 [2] | EC50 [3] | SMILES | EC50 [1]
15 | ≤ 5 µM | ≤ 5 µM | NCCCn1cc(-c2ccc(OC(F)(F)F)cc2CN)c2cc(CN3CCS(=O)(=O)CC3)ccc21 [C288; HCl] | ≤ 5 µM
16 | ≤ 5 µM | ≤ 5 µM | NCCCn1nc2ccc(CN3CCN(Cc4ccccc4Cl)CC3)cc2c1-c1ccc(OC(F)(F)F)cc1 [C182; HCl] | ≤ 5 µM
17 | 5 to 10 µM | 5 to 10 µM | NCCCn1cc(-c2cc[nH]n2)c2cc(CN3CCN(Cc4ccccc4Cl)CC3)ccc21 [C190; HCl] | 5 to 10 µM
18 | ≤ 5 µM | ≤ 5 µM | Cc1ccc(-c2cn(CCCN)c3ccc(CN4CCN(Cc5ccccc5Cl)CC4)cc23)c(CN)c1 [C223; HCl] | ≤ 5 µM
19 | ≤ 5 µM | ≤ 5 µM | FC(F)(F)Oc1ccc(-c2cn(C3CCNCC3)c3ccc(CN4CCC(Cc5ccccc5Cl)CC4)cc23)cc1 [C225; HCl] | ≤ 5 µM
20 | ≤ 5 µM | 5 to 10 µM | CCC1CCN(Cc2ccc3c(c2)c(-c2ccc(OC)cc2CN)cn3CCCN)CC1 [C255; HCl] | 5 to 10 µM
21 | ≤ 5 µM | ≤ 5 µM | NCC(=O)NCc1ccc(-n2cc(-c3ccc(OC(F)(F)F)cc3)c3cc(CN4CCN(Cc5ccccc5Cl)CC4)ccc32)cn1 [C219; HCl] | ≤ 5 µM
22 | 5 to 10 µM | 5 to 10 µM | NCCCn1cc(-c2ccc(OC(F)(F)F)cc2)c2c(CN3CCN(Cc4ccc(OC(F)(F)F)cc4)CC3)cccc21 [C186; HCl] | 5 to 10 µM
23 | ≤ 5 µM | – | NCCCn1cc(-c2ccc(OC(F)(F)F)cc2)c2cc(CN3CCN(Cc4c(Cl)cccc4Cl)CC3)cnc21 [C177; HCl] | ≤ 5 µM
